Source: article PMC7794231 (2021)

Columns and labels:
[1] = tested on: c-Myc (DNA, G4) TGAGGGTGGGTAGGGTGGGTAA; test: fluorescence lifetime displacement assay (TCSPC); settings: 100 mM KCl (K+), 10 mM lithium cacodylate (Li+), pH 7.3, 2 µM DAOTA-M2 displaced, 4 µM c-Myc
[2] = tested on: c-Myc (DNA, G4) TGAGGGTGGGTAGGGTGGGTAA; test: fluorescence lifetime (TCSPC); settings: 100 mM KCl (K+), 10 mM lithium cacodylate (Li+); pH 7.3; 2 µM DAOTA-M2, 4 µM c-Myc, 20 µM CT-DNA present; lifetime 6.1 to 11.7 ns
[3] = tested on: ds26 (DNA, duplex) CAATCGGATCGAATTCGATCCGATTG; test: fluorescence lifetime (TCSPC); settings: 100 mM KCl (K+), 10 mM lithium cacodylate (Li+) (buffer part); Xenopus egg extract 33 µL + 12 µL buffer; 2 µM DAOTA-M2, 44 µM ds26; 21 °C; lifetime 6.1 ns

Row | binding [1] | SMILES | further results
1 | yes | [Cu+2].[O-]c1cc(OCCN2CCCCC2)ccc1/C=N/c1ccccc1/N=C/c1ccc(OCCN2CCCCC2)cc1[O-] | 
2 | yes | [Ni+2].[O-]c1cc(OCCN2CCCCC2)ccc1/C=N/c1ccccc1/N=C/c1ccc(OCCN2CCCCC2)cc1[O-] | 
3 | yes | [O-2].[O-]c1cc(OCCN2CCCCC2)ccc1/C=N/c1ccccc1/N=C/c1ccc(OCCN2CCCCC2)cc1[O-].[V+4] | 
4 | weak | [O-]c1cc(OCCN2CCCCC2)ccc1/C=N/c1ccccc1/N=C/c1ccc(OCCN2CCCCC2)cc1[O-].[Zn+2] | 

Continued, molecule first:

Row | SMILES | binding [1] | further results
5 | N=C(N)c1ccc(-c2cc3ccc(C(=N)N)cc3[nH]2)cc1 |  | binding ([1]; 20 µM CT-DNA present, small lifetime drop): no
6 | NCCOc1cc(C(=O)Nc2cc(OCCN)c3ccccc3n2)nc(C(=O)Nc2cc(OCCN)c3ccccc3n2)c1 |  | binding ([1]; 20 µM CT-DNA present, PDS to 14.4 µM): yes
7 | c1cc2oc3cccc4c3[c+]3c2c(c1)n(CCN1CCOCC1)c1cccc(c13)n4CCN1CCOCC1 |  | binding [2]: yes; binding [3]: yes
